Like-named read-outs stand apart in the source and are kept apart here.
Assays:
Dermabacter hominis = assay: MIC of baseline clinical isolates (Example 8); format: cell-based; settings: Dermabacter hominis baseline isolates (N′ = 1), central laboratory, mITT
Summary of the method: (§1)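 Central-lab MIC testing per CLSI methods of MBN-101 (BisEDT) against aerobic and anaerobic isolates; specimens from infected bone, peri-implant tissue, deep swabs and superficial wound/sinus tract, collected Day 1 and at any later index-site surgery.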

[1] = system: non-speciated Corynebacterium; assay: MIC of baseline clinical isolates (Example 8); format: cell-based; settings: Corynebacterium non-speciated baseline isolates (N′ = 2), central laboratory, mITT
Summary of the method: as §1

Corynebacterium jeikeium = assay: MIC of baseline clinical isolates (Example 8); format: cell-based; settings: Corynebacterium jeikeium baseline isolates (N′ = 2), central laboratory, mITT
Summary of the method: as §1

P. aeruginosa [2] = settings: P. aeruginosa MMX 103 (ATCC 27853); cited from earlier work
E. coli = E. coli MMX 102 (ATCC 25922); cited from earlier work
N. gonorrhoeae = assay: microbe, parasite or virus in culture; settings: Neisseria gonorrhoeae
P. aeruginosa [3] = assay: Broth microdilution MIC (Example 5); format: cell-based, Pseudomonas aeruginosa; settings: Pseudomonas aeruginosa
Protocol: Test and Comparator Agents: The test agents were stored at room temperature until assayed. […] The stock solutions were allowed to stand for at least 1 hr prior to use to auto-sterilize.
TestMedia: Test media were prepared and stored in accordance with guidelines from CLSI (4, 6, 7).
Broth Microdilution MC Testing (Aerobic Bacteria and Yeast): The broth microdilution assay method employed for the susceptibility testing of aerobic bacteria (excluding N. gonorrhoeae which was evaluated by agar dilution) and yeast essentially followed the procedures described by CLSI (3, 4, 7, 8) and employed automated liquid handlers to conduct serial dilutions and liquid transfers. […] These would become the ‘mother plates’ from which ‘daughter’ or test plates would be prepared. The drugs (300 μL at 40× the desired top concentration in the test plates) were dispensed into the appropriate well in Column 1 of the mother plates. The Biomek 2000 was used to make serial two-fold dilutions through Column 11 in the “mother plate”. The wells of Column 12 contained no drug and ultimately served as the organism growth control wells.
The daughter plates were prepared using the Biomek FX which transferred 5 μL of drug solution from each well of a mother plate to the corresponding well of the correct daughter plate in a single step.
A standardized inoculum of each organism was prepared per CLSI methods (3, 7). Isolated colonies of each test isolate were picked from the primary plate and a suspension was prepared to equal a 0.5 McFarland turbidity standard. Standardized suspensions were then diluted […] (1:100 for yeast, 1:20 for bacteria). After dilution, the inoculum suspensions were then transferred to compartments of sterile reservoirs divided by length (Beckman Coulter), and the Biomek 2000 was used to inoculate all plates. Daughter plates were placed on the Biomek 2000 in reverse orientation so that plates were inoculated from low to high drug concentration.
The Biomek 2000 delivered 10 μL of standardized inoculum into each well of the appropriate daughter plate for an additional 1:20 dilution.
Plates were stacked 4 high, covered with a lid on the top plate, placed into plastic bags, and incubated at 35° C. for approximately 24-48 hr for all yeast isolates and 16-24 hr for aerobic bacteria. Plates were viewed from the bottom using a plate viewer. […] MIC endpoints for the test agents and control compounds were read per CLSI criteria (3, 7).

enterococci = assay: MIC summary, enterococci (Example 5); format: cell-based, E. faecalis and E. faecium; settings: Enterococcus, VRE (Table 5), read-out: MIC values across isolates
Protocol: Test and Comparator Agents: The test agents were stored at room temperature until assayed. All test agents were suspended and diluted in 100% dimethylsulfoxide (DMSO), and were ultimately tested at a final concentration of 0.06-64 μg/mL. The stock solutions were allowed to stand for at least 1 hr prior to use to auto-sterilize.
TestMedia: Test media were prepared and stored in accordance with guidelines from CLSI (4, 6, 7). […] Neisseria gonorrhoeae were evaluated by agar dilution using agar consisting of GC medium base (BD; Lot No. 4274618) supplemented with 1% IsoVitaleX (BD; Lot No. 5246843).
Broth Microdilution MC Testing (Aerobic Bacteria and Yeast): The broth microdilution assay method employed for the susceptibility testing of aerobic bacteria (excluding N. gonorrhoeae which was evaluated by agar dilution) and yeast essentially followed the procedures described by CLSI (3, 4, 7, 8) and employed automated liquid handlers to conduct serial dilutions and liquid transfers. […]
Plates were stacked 4 high, covered with a lid on the top plate, placed into plastic bags, and incubated at 35° C. for approximately 24-48 hr for all yeast isolates and 16-24 hr for aerobic bacteria. […] MIC endpoints for the test agents and control compounds were read per CLSI criteria (3, 7).

[4] = ATCC49226, N. gonorrhoeae MMX 683 (ATCC 49226), QC
[5] = N. gonorrhoeae MMX 6757, CTX NS
[6] = read-out: MIC values across isolates, N. gonorrhoeae isolates (Table 7)
[7] = ATCC27853, P. aeruginosa MMX 103 (ATCC 27853), QC, read-out: MIC

| Structure (SMILES) | n (% resistant) (Dermabacter hominis) | n (% resistant) [1] | n (% resistant) (Corynebacterium jeikeium) | CLSI QC range of MIC (P. aeruginosa [2]) | CLSI QC range of MIC (E. coli) | MIC (N. gonorrhoeae; [4]) [µg/mL] | MIC (N. gonorrhoeae; [5]) [µg/mL] | MIC (N. gonorrhoeae; N. gonorrhoeae MMX 6791, CIPR) [µg/mL] | MIC (N. gonorrhoeae; N. gonorrhoeae MMX 6792, CIPR) [µg/mL] | MIC (N. gonorrhoeae; N. gonorrhoeae MMX 6793, CIPR) [µg/mL] | MIC (N. gonorrhoeae; [6]) [µg/mL] | MIC (P. aeruginosa [3]; [7]) [µg/mL] | MIC (enterococci) [µg/mL] | further results |
| --- | --- | --- | --- | --- | --- | --- | --- | --- | --- | --- | --- | --- | --- | --- |
| CCC[C@@H]1C[C@@H](C(=O)N[C@@H]([C@H]2O[C@H](SC)[C@H](O)[C@@H](O)[C@H]2O)[C@H](C)Cl)N(C)C1 [CLI] | 0 (0.0) n (%) | 1 (50.0) n (%) | 2 (100.0) n (%) |  |  |  |  |  |  |  |  |  |  | Mean MIC (Dermabacter hominis): 0.50 µg/mL; Mean MIC [1]: 1.06 µg/mL; Mean MIC (Corynebacterium jeikeium): 2.00 µg/mL |
| CC(C)(O/N=C(\C(=O)N[C@@H]1C(=O)N2C(C(=O)[O-])=C(C[n+]3ccccc3)CS[C@H]12)c1csc(N)n1)C(=O)O [Ceftazidime] |  |  |  | (1-4) μg/mL | (0.06-0.5) μg/mL |  |  |  |  |  |  |  |  |  |
| C[C@H]1COc2c(N3CCN(C)CC3)c(F)cc3c(=O)c(C(=O)O)cn1c23 [Levofloxacin] | 0 (0.0) n (%) | 0 (0.0) n (%) | 0 (0.0) n (%) |  |  |  |  |  |  |  |  |  |  | MIC (Dermabacter hominis): 1 µg/mL; MIC [1]: 0.18 µg/mL; MIC (Corynebacterium jeikeium): 0.18 µg/mL |
| OCC(S)CS.[Bi] (stereo not shown) [MB-2B, bismuth-2,3-dimercaptopropanol] |  |  |  |  |  | 0.12 | 0.5 | 0.12 | 0.12 | 0.5 | 0.12 to 0.5 | 8 | 2 to 4 | MIC (P. aeruginosa [3]; P. aeruginosa MMX 1381, MDR): 2 µg/mL; MIC (P. aeruginosa [3]; P. aeruginosa MMX 2562, MDR): 4 µg/mL; MIC (P. aeruginosa [3]; P. aeruginosa MMX 3991, MDR): 8 µg/mL; MIC (P. aeruginosa [3]; P. aeruginosa MMX 4654, IMP-7): 8 µg/mL; MIC (P. aeruginosa [3]; P. aeruginosa MMX 4697, VIM-2): 16 µg/mL |
| CC(S)C(C)S.[Bi] (stereo not shown) [MB-6, bismuth-2,3-butanedithiol] |  |  |  |  |  | 0.06 | 0.06 | 0.12 | 0.12 | 0.25 | 0.06 to 0.25 | 1 | 0.25 to 1 |  |
| C[C@@H](O)[C@H]1C(=O)N2C(C(=O)O)=C(S[C@@H]3CN[C@H](C(=O)N(C)C)C3)[C@H](C)[C@H]12 [Meropenem] |  |  |  | (0.25-1) μg/mL | (0.008-0.06) μg/mL |  |  |  |  |  |  |  |  |  |

Reference: patent US20240285571A1, “METHODS OF TREATING BONE INFECTIONS” (MICROBION CORPORATION, priority 2020, published 2024)
